From ChEMBL document CHEMBL1145723, “Metabolic cleavage of frangufoline in rodents: in vitro and in vivo study” (J Nat Prod, 1997)
One block for each compound: values may come before it.

Tests used:
[1] = test system: Serum; test: Metabolic stability in Sprague-Dawley rat serum assessed as formation of (S)-(N,N-dimethylphenylalanyl)-(2S,3S)-3[(p-formylphenoxyl)leucyl]-(S)-leucine) after 30 mins by HPLC; format: ADME, cell-free; details: 0.5 h
[2] = test system: Serum; test: Metabolic stability in Sprague-Dawley rat serum assessed as initial rate of compound cleavage at 0.10 mM after 10 mins by HPLC; format: ADME, cell-free; details: 100 µM
[3] = test system: Serum; test: Metabolic stability in Sprague-Dawley rat serum assessed as formation of (S)-(N,N-dimethylphenylalanyl)-(2S,3S)-3[(p-formylphenoxyl)leucyl]-(S)-leucine) at 25 mg/kg, po after 10 mins by HPLC; format: ADME, organism-based; parameters: dose 25 mg/kg, route oral; details: in vivo
[4] = test system: Serum; test: Metabolic stability in mouse serum assessed as formation of (S)-(N,N-dimethylphenylalanyl)-(2S,3S)-3[(p-formylphenoxyl)leucyl]-(S)-leucine) after 1 hr by HPLC; format: ADME, cell-free
[5] = test system: Serum; test: Metabolic stability in Sprague-Dawley rat serum assessed as initial rate of compound cleavage at 0.10 mM after 10 mins by HPLC in presence of 2 mM p-chloromercuribenzoic acid; format: ADME, cell-free; details: 100 µM
[6] = Metabolic stability in Sprague-Dawley rat gastric juice assessed as formation of (S)-(N,N-dimethylphenylalanyl)-(2S,3S)-3[(p-formylphenoxyl)leucyl]-(S)-leucine) after 30 mins by HPLC; format: ADME, tissue-based; details: 0.5 h
[7] = test system: Serum; test: Metabolic stability in Sprague-Dawley rat serum assessed as initial rate of compound cleavage at 0.10 mM after 10 mins by HPLC in presence of 2 mM bis-(p-nitrophenyl) phosphate; format: ADME, cell-free; details: 100 µM
[8] = test system: Serum; test: Metabolic stability in Sprague-Dawley rat serum assessed as initial rate of compound cleavage at 0.10 mM after 10 mins by HPLC in presence of 2 mM eserine; format: ADME, cell-free; details: 100 µM
[9] = Metabolic stability in Sprague-Dawley rat intestinal fluid assessed as formation of (S)-(N,N-dimethylphenylalanyl)-(2S,3S)-3[(p-formylphenoxyl)leucyl]-(S)-leucine) after 30 mins by HPLC; format: ADME; details: simulated gi fluid, 0.5 h
[10] = test system: Serum; test: Metabolic stability in Sprague-Dawley rat serum assessed as formation of (S)-(N,N-dimethylphenylalanyl)-(2S,3S)-3[(p-formylphenoxyl)leucyl]-(S)-leucine) at 50 mg/kg, po after 30 mins by HPLC; format: ADME, organism-based; parameters: dose 50 mg/kg, route oral; details: in vivo, 0.5 h
[11] = test system: Serum; test: Metabolic stability in Sprague-Dawley rat serum up to 3 hrs; format: ADME, cell-free
[12] = test system: Serum; test: Metabolic stability in Sprague-Dawley rat serum assessed as initial rate of compound cleavage at 0.10 mM after 10 mins by HPLC in presence of 2 mM EDTA; format: ADME, cell-free; details: 100 µM
[13] = test system: Serum; test: Metabolic stability in Sprague-Dawley rat serum assessed as initial rate of compound cleavage at 0.10 mM after 10 mins by HPLC in presence of 2 mM (phenylmethyl)sulfonyl fluoride; format: ADME, cell-free; details: 100 µM
[14] = test system: Serum; test: Metabolic stability in bovine serum assessed as formation of (S)-(N,N-dimethylphenylalanyl)-(2S,3S)-3[(p-formylphenoxyl)leucyl]-(S)-leucine) after 1 hr by HPLC; format: ADME, cell-free, Bos taurus; details: cattle
[15] = test system: Serum; test: Metabolic stability in Sprague-Dawley rat serum assessed as initial rate of compound cleavage at 0.10 mM after 10 mins by HPLC in presence of 10 uM eserine; format: ADME, cell-free; details: 100 µM
[16] = test system: Serum; test: Metabolic stability in human serum assessed as formation of (S)-(N,N-dimethylphenylalanyl)-(2S,3S)-3[(p-formylphenoxyl)leucyl]-(S)-leucine) after 1 hr by HPLC; format: ADME, cell-free
[17] = test system: Serum; test: Metabolic stability in Sprague-Dawley rat serum assessed as formation of (S)-(N,N-dimethylphenylalanyl)-(2S,3S)-3[(p-formylphenoxyl)leucyl]-(S)-leucine) after 5 mins by HPLC; format: ADME, cell-free

Activity [1]: Unstable
SMILES: CC(C)C[C@H]1NC(=O)[C@@H](NC(=O)[C@H](Cc2ccccc2)N(C)C)[C@H](C(C)C)Oc2ccc(cc2)/C=C\NC1=O [SANJOININE AH1]

Activity [1]: Stable
SMILES: CO[C@H]1CNC(=O)[C@H](CC(C)C)NC(=O)[C@@H](NC(=O)[C@H](Cc2ccccc2)N(C)C)[C@H](C(C)C)Oc2ccc1cc2 [SANJOININE D]

Activity [1]: Stable
SMILES: CC(C)C[C@@H]1NC(=O)[C@@H](NC(=O)[C@H](Cc2ccccc2)N(C)C)[C@H](C(C)C)Oc2ccc(cc2)CCNC1=O [DIHYDROSANJOININE A]

Activity [1]: Stable
SMILES: CC(C)C[C@@H]1NC(=O)[C@@H](NC(=O)[C@H](Cc2ccccc2)N(C)C)[C@H](C(C)C)Oc2ccc(cc2)[C@@H](O)CNC1=O [SANJOININE G1]

Stability [2]: 1.44 pmol/min/mg | Stability [3]: Unstable | Stability [4]: Unstable | Stability [5]: 1.34 pmol/min/mg | Stability [1]: Unstable | Stability [6]: Stable | Stability [7]: 0.116 pmol/min/mg | Stability [8]: 0.352 pmol/min/mg | Stability [9]: Stable | Stability [10]: Unstable | Stability [11]: Stable | Stability [12]: 0.376 pmol/min/mg | Stability [13]: 1.3 pmol/min/mg | Stability [14]: Stable | Stability [15]: 1.24 pmol/min/mg | Stability [16]: Stable | Stability [17]: Unstable
SMILES: CC(C)C[C@@H]1NC(=O)[C@@H](NC(=O)[C@H](Cc2ccccc2)N(C)C)[C@H](C(C)C)Oc2ccc(cc2)/C=C\NC1=O [FRANGUFOLINE]
